From patent US7582678B2, “Use of branched-chain fatty acids and derivatives thereof for the treatment of pain” (D-PHARM Limited, priority 1998, dated 2009)

Experiments:
[1] = tested on: Sprague-Dawley (SD) rats; details: rats day 15 post-CCI operation, s.c. 150 mg/kg, vs vehicle (FIG. 3)
Procedure: Male, Sprague-Dawley (SD) rats, weighing around 200-250 grams, were anesthetized by i.p. injection of ketamine (50 mg/kg) and xylazine (10 mg/kg). The common sciatic nerve was exposed at the middle of the thigh of the hind right foot. Four ligatures were tied loosely around the nerve with a spacing of about 1 mm between them. The incision was closed by suturing the inner layers of the muscles with chromic gut suture, and the outer skin with silk suture. Five to seven days later the nociceptive threshold can be evaluated by quantifying sensitivity of the foot to mechanical stimuli or cold temperatures to assess allodynia.
The mechanical sensitivity of the animal foot is measured using the von Frey test [Kim and Chung (1992) Pain 50: 355-63]. An automated von Frey test was employed, in which a von Frey filament is applied to the plantar surface of the animal foot and the filament is pushed automatically at a preset rate of force/time increments into the plantar. Each measurement was repeated 2-3 times in each epsilateral and contralateral foot of the tested animals. The time lapsed from applying of pressure until withdrawal of the foot from the innocuous stimulus was measured in the treated animals and compared to the baseline values obtained for each animal prior to treatment.
As a control served CCI-operated animals injected with vehicle only.

[2] = tested on: Male CD-1 mice; experiment: Tail flick assay (radiated heat, acute pain) in mice;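 note: infrared heat aimed at the tail of restrained mice, time until tail flick recorded as mean of 2-3 readings, 4-8 animals per group, compared with vehicle-treated animals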
Procedure: The analgesic effect of branched-chain fatty acids (BFAs) and their DP-BFAs derivatives was tested by using the tail flick assay in mice.
This model uses radiated infrared (IR) heat source that is directed to the tail of a restrained mouse. The threshold of tolerance for heat is indicated by a time-meter, which is stopped instantaneously when the tail flicks. This time is defined as ‘withdrawal latency’.
Male CD-1 mice weighing around 25-30 grams (4-8 animals per each dose of the tested compound) were used. The animals were put in clear plastic cages above an IR source (7371-Plantar™ Analgesia Instrument, UGO Basile), where the IR generator is placed directly underneath the tail of the mouse and the light beam is focused on the proximal third of the tail.
The withdrawal latency, namely the time interval from the starting of the infrared radiation until the animal feels pain and flicks its tail is determined. The initial withdrawal latency for each animal was measured at t=0 and was determined as its baseline threshold.
In order to determine the analgesic effect of a tested drug, the drug (10 to 200 mg/kg body weight) was administered to mice either orally (p.o.) or by intraperitoneal (i.p.) or subcutaneous (s.c.) injection. Withdrawal latency was determined at different time points post-administration of the drug as indicated. Each reading was performed 2-3 times and the mean-value was calculated. […] The withdrawal latency at each time point post injection is the average of 4-8 animals per group. […] Paired T-test was used to assess significance in comparison to the baseline value (t=0). Morphine was used as a positive control (2 animals per dose).

[3] = tested on: CD-1 mice; details: 150 mg/kg single dose one hour before formalin; vs non-treated animals; 10 to 35 minutes after formalin (chronic phase); p<0.05 (FIG. 2)
Procedure: Evaluation of pain is based on the observed behavior of the animals after the formalin injection.
Formalin stock (Frutarom Ltd., Israel; cat. # 5551830; 3.4-3.8% formaldehyde content) was diluted into 2.5% formalin solution in saline. 25 μl of the 2.5% formalin solution was injected into the plantar surface of CD-1 mice foot using a syringe with a 29G needle. The animals' reaction, apparent as licking and lifting the paw off the ground, is noticed immediately after injection. Each of the treated animals and control naive animals injected only with formalin was monitored for a period of 40 min, through 5 minutes time segments (4-6 animals in a group).
Evaluation of pain was performed by recording the time the animal spent licking its paw. A computerized program was used for timing the total number of seconds each animal spent licking its paw during the preset period of 5 min. This step was repeated for up to 40 min (8 intervals of 5 min).

Question: With 8-Pentadecanyl phosphocholine as the substance, how does the “withdrawal threshold (mechanical allodynia, von Frey)” value [1] read?
Answer: increased withdrawal threshold

Question: What about the “Withdrawal latency (% of vehicle)” value ([2]; I.P., 100 mg/kg, 15 min post-injection) of the same substance?
Answer: 235% of vehicle

Question: What about the “Withdrawal latency (% of vehicle)” value ([2]; I.P., 100 mg/kg, 45 min post-injection) of the same substance?
Answer: 134% of vehicle

Question: And the “Withdrawal latency (% of vehicle)” value ([2]; I.P., 100 mg/kg, 75 min post-injection)?
Answer: 177% of vehicle

Question: And the “Withdrawal latency (% of vehicle)” value ([2]; I.P., 100 mg/kg, 105 min post-injection)?
Answer: 134% of vehicle

Question: And the “Withdrawal latency (% of vehicle)” value ([2]; I.P., 100 mg/kg, 135 min post-injection)?
Answer: 141% of vehicle

Question: What about the “Withdrawal latency (% of vehicle)” value ([2]; I.P., 100 mg/kg, 285 min post-injection) of the same substance?
Answer: 145% of vehicle

Question: What about the “Withdrawal latency (% of vehicle)” value ([2]; P.O., 50 mg/kg, 45 min post-administration) of the same substance?
Answer: 149% of vehicle

Question: And the “Withdrawal latency (% of vehicle)” value ([2]; P.O., 50 mg/kg, 75 min post-administration)?
Answer: 157% of vehicle

Question: And the “Withdrawal latency (% of vehicle)” value ([2]; P.O., 50 mg/kg, 105 min post-administration)?
Answer: 145% of vehicle

Question: What about the “Withdrawal latency (% of vehicle)” value ([2]; P.O., 50 mg/kg, 135 min post-administration) of the same substance?
Answer: 137% of vehicle

Question: And the “Withdrawal latency (% of vehicle)” value ([2]; P.O., 50 mg/kg, 285 min post-administration)?
Answer: 127% of vehicle

Question: What about the “Withdrawal latency (% of vehicle)” value ([2]; P.O., 50 mg/kg, 345 min post-administration) of the same substance?
Answer: 124% of vehicle

Question: What about the “Withdrawal latency (% of vehicle)” value ([2]; S.C., 25 mg/kg, 45 min post-injection) of the same substance?
Answer: 147% of vehicle

Question: What about the “Withdrawal latency (% of vehicle)” value ([2]; S.C., 25 mg/kg, 75 min post-injection) of the same substance?
Answer: 143% of vehicle

Question: What about the “Withdrawal latency (% of vehicle)” value ([2]; S.C., 25 mg/kg, 105 min post-injection) of the same substance?
Answer: 165% of vehicle

Question: And the “Withdrawal latency (% of vehicle)” value ([2]; S.C., 25 mg/kg, 135 min post-injection)?
Answer: 169% of vehicle

Question: And the “Withdrawal latency (% of vehicle)” value ([2]; S.C., 25 mg/kg, 285 min post-injection)?
Answer: 141% of vehicle

Question: And the “Withdrawal latency (% of vehicle)” value ([2]; S.C., 25 mg/kg, 345 min post-injection)?
Answer: 130% of vehicle

Question: What about the “Withdrawal latency (% of vehicle)” value ([2]; S.C., 150 mg/kg, 45 min post-injection) of the same substance?
Answer: 194% of vehicle

Question: What about the “Withdrawal latency (% of vehicle)” value ([2]; S.C., 150 mg/kg, 75 min post-injection) of the same substance?
Answer: 217% of vehicle

Question: What about the “Withdrawal latency (% of vehicle)” value ([2]; S.C., 150 mg/kg, 105 min post-injection) of the same substance?
Answer: 186% of vehicle

Question: And the “Withdrawal latency (% of vehicle)” value ([2]; S.C., 150 mg/kg, 135 min post-injection)?
Answer: 175% of vehicle

Question: And the “Withdrawal latency (% of vehicle)” value ([2]; S.C., 150 mg/kg, 285 min post-injection)?
Answer: 184% of vehicle

Question: What about the “Withdrawal latency (% of vehicle)” value ([2]; S.C., 150 mg/kg, 345 min post-injection) of the same substance?
Answer: 175% of vehicle

Question: And the “increase in withdrawal latency” value ([2]; s.c., 150 mg/kg, 5-6 hours post injection)?
Answer: around 80%

Question: And the “potency ranking in the assay” value ([2]; tail flick)?
Answer: most potent

Question: What about the “size of analgesic effect, ranking among tested compounds” value ([2]; tail flick, Table 1) of the same substance?
Answer: largest analgesic effects

Question: And the “time the animal spent licking its paw” value [3]?
Answer: significant less time licking their paw
